Columns and labels:
nTregs = assay: Proliferation (VCT, flow cytometry) of activated nTregs; assay type: cell-based, mouse; settings: 72 hrs, anti-CD3, IL2 and anti-CD28
Procedure: (§1) FACS-sorted nTregs, CD4+ and CD8+ T cells from C57BL/6J(foxp3-GFP) were plated on anti-CD3-coated plates and cultured in activation media (IL2 and anti-CD28) without inhibitors (Stimulated) and with inhibitors (JJ64-E) for 72 hrs. For negative control (Non-stimulated-NS) cells were left in media containing IL-2 for 72 hrs. After 72 hrs Proliferation (level of VCT) in live gated cells was measured by flow cytometry.

[1] = tested on: CD8 and other (FoxP3neg) CD4 T cells; assay: TC-1 tumor model: percentage of CD4 and CD8 T cells by flow cytometry; assay type: in vivo, mouse; settings: 5 mg/kg or 10 mg/kg i.p. every day from day 10, analysed day 15
Procedure: (§2) WT C57BL/6 4-6 weeks old female mice (n=5/group) were injected s.c. in the right flank with 7×10^4 TC-1 cells. Mice from appropriate groups were treated with either 5 mg/kg or 10 mg/kg of JJ64-E injected (i.p.) everyday starting on day 10 after tumor implantation throughout the experiment. All groups were euthanized on day 15 of TC-1 implantation. The percentage of CD4 and CD8 were analyzed in splenic CD4+ cells by flow cytometry.

Akt1 = biological target: T1, Akt1 (Mus musculus, UniProt P31750); assay: Immunoblot of pAkt1 in activated nTregs; assay type: cell-based; settings: 72 hrs
T1 construct: endogenous in cells; host or cells: primary mouse nTregs (C57BL/6J foxp3-GFP)
Procedure: (§3) FACS-sorted natural regulatory T cells (nTregs), from WT C57BL/6J (foxp3-GFP) mice were plated on anti-CD3-coated plates and cultured in activation media (IL2 and anti-CD28) without inhibitors (Stimulated) and with different concentrations of inhibitor 4-[(6-nitroquinolin-4-yl)amino]-N-[4-(pyridin-4-ylamino)phenyl]benzamide (also referred to as JJ64-E) for 72 hrs. For negative control (Non-stimulated-NS) cells were left in media containing IL-2 for 72 hrs. nTreg cell lysates prepared on day 3 (72 hrs) of treatment were separated by SDS-PAGE and immunoblotted with specific antibodies (pAkt1) or pAkt3; actin was used as loading control.

TC-1 tumor = TC-1 tumor growth and survival, alone or with vaccine; assay type: in vivo, mouse; settings: high dose as monotherapy, lower dose combined with vaccine
Procedure: (§4) C57BL/6 mice (n=5/group) were injected s.c. in the right flank with 7×10^4 TC-1 cells. Mice from appropriate groups were injected weekly with vaccine (s.c.) or DMSO 5% as a control. Mice were also treated with vaccine (weekly) along with either 10 mg/kg or 20 mg/kg of JJ64-E injected (i.p.) every day starting on day 6 after tumor implantation throughout the experiment.
FIGS. 5B and 5C are bar diagrams showing average tumor volumes of mice for each group. FIG. 5D is a Kaplan-Meier plot of the overall survival. Statistical significance was determined by Log-rank (Mantel-Cox) test.
(§5) Statistical significance was determined by one-way ANOVA with Tukey's multiple comparison test (*, p<0.05; **, p<0.01; ***, p<0.001).
as §4, with “JJ64-C(or FIG. 7A or Formula 18)” for “JJ64-E”, “every other” for “every”
FIGS. 7C and 7D are bar diagrams representing average tumor volumes of mice for each group. FIG. 7E is a Kaplan-Meier plot of the overall survival. Statistical significance was determined by Log-rank (Mantel-Cox) test.

Tregs (CD4+Foxp3+) = assay: TC-1 tumor model: percentage of Tregs by flow cytometry; assay type: in vivo, mouse; settings: 5 mg/kg or 10 mg/kg i.p. every day from day 10, analysed day 15
Procedure: as §2, with “C57BL/6J” for “C57BL/6 4-6 weeks old female”, “(n=3/group)” for “(n=5/group)”, “every day” for “everyday”, “Tregs (CD4+Foxp3+) was” for “CD4 and CD8 were”, “analyzed” for “analyzed in splenic CD4+ cells”
as §5

CD4+ and CD8+ T cells = assay: Proliferation (VCT, flow cytometry) of activated CD4+ and CD8+ T cells; assay type: cell-based, mouse; settings: 72 hrs, anti-CD3, IL2 and anti-CD28
Procedure: as §1

Akt3 = biological target: T2, Akt3 (Mus musculus, UniProt Q9WUA6); assay: Immunoblot of pAkt3 in activated nTregs; assay type: cell-based; settings: 72 hrs
T2 construct: nTreg cell lysates prepared on day 3 (72 hrs) of treatment were separated by SDS-PAGE and immunoblotted; endogenous in cells; host or cells: primary mouse nTregs (C57BL/6J foxp3-GFP)
Procedure: as §3

[2] = tested on: iTreg induction (CD4+FoxP3+ cells); assay: iTreg induction from CD4+FoxP3- cells with TGF-β (flow cytometry); assay type: cell-based; settings: 72 hrs, frequency of CD4+FoxP3+ cells
Procedure: (§6) FACS-sorted CD4+FoxP3− cells were plated on anti-CD3-coated plates with soluble IL2 and ant-CD28 with TGF-β (induction) Cell were induced for iTregs with JJ64-B (FIG. 6A) without inhibitor (Induction-IND)) or for 72 hrs. Cells were harvested and the frequency of CD4+FoxP3+ cells was measured by flow cytometry.
as §6, with “JJ64-C (JJ64 modified drug C or Formula 18) or” for “JJ64-B (FIG. 6A)”
as §6, with “JJ64-D (JJ64 modified drug D or FIG. 9A) or” for “JJ64-B (FIG. 6A)”

[3] = JJ64-E i.p. every day from day 6
[4] = JJ64-C i.p. every other day from day 6

T1 sequence (P31750 whole entry): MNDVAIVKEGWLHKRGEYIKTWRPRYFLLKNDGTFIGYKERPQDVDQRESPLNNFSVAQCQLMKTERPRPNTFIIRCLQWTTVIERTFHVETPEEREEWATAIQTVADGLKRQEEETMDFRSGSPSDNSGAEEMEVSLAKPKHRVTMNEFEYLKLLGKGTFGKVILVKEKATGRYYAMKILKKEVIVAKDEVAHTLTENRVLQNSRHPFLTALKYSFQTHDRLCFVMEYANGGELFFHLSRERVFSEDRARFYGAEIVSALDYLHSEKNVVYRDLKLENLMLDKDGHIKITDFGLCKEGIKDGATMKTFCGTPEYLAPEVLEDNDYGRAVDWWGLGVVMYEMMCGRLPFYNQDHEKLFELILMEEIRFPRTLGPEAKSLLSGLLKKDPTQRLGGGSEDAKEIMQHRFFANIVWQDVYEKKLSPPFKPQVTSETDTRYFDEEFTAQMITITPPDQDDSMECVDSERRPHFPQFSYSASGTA
T2 sequence (Q9WUA6 whole entry): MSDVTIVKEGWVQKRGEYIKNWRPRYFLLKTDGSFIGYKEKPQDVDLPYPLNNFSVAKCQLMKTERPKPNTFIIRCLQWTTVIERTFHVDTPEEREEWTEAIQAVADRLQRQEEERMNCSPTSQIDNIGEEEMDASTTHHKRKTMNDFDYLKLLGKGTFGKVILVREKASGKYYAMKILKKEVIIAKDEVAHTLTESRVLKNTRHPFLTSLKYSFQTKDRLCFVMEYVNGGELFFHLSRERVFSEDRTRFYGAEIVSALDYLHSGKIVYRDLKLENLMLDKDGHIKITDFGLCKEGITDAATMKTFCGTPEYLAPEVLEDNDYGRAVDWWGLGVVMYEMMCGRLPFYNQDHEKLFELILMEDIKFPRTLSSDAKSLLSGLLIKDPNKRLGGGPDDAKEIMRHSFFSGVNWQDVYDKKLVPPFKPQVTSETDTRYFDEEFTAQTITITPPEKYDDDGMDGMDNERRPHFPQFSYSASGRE

Row | Structure (SMILES) | Treg proliferation (nTregs) | CD8 and other (FoxP3neg) CD4 T cells in TC-1 tumor model [1] | Akt1 phosphorylation in Tregs (Akt1) | TC-1 tumor growth (TC-1 tumor; [3]) | survival of TC-1 tumor mice (TC-1 tumor; [3]) | Tregs in vivo in TC-1 tumor model (Tregs (CD4+Foxp3+)) | proliferation of CD8 and other CD4 T cells (CD4+ and CD8+ T cells) | Akt3 phosphorylation in Tregs (Akt3) | TC-1 tumor growth (TC-1 tumor; [4]) | survival of TC-1 tumor mice (TC-1 tumor; [4]) | iTreg induction [2]
1 | O=C(Nc1ccc(Nc2ccncc2)cc1)c1ccc(Nc2ccnc3ccc([N+](=O)[O-])cc23)cc1 [Compound 1, 4-[(6-nitroquinolin-4-yl)amino]-N-[4-(pyridin-4-ylamino)phenyl]benzamide] | selectively inhibits | does not affect | not | inhibits | prolongs | decreases | sparing | inhibits |  |  | 
2 | O=C(Nc1cccc(Nc2ccncc2)c1)c1cccc(Nc2ccnc3ccc(F)cc23)c1 [Compound 18] |  |  |  |  |  |  |  |  | inhibits | prolongs | inhibits

Source: patent US11291719B2, “Methods and compositions for modulating Akt3” (Augusta University Research Institute, Inc., priority 2016, dated 2022)
